Laboratory results: PMC9499467, “Phenanthroindolizidine Alkaloids Isolated from Tylophora ovata as Potent Inhibitors of Inflammation, Spheroid Growth, and Invasion of Triple-Negative Breast Cancer” (International Journal of Molecular Sciences, 2022)
Where two headings read alike, the source gives them in different places.

Assays:
[1] = system: 3D co-culture spheroids of MDA-MB-231 and primary murine CAFs; experiment: 3D growth studies, spheroid size of co-culture spheroids; assay type: cell-based, human MDA-MB-231; conditions: 100 nM, 72 h
Experimental: To emulate the TNBC microenvironment, 3D spheroids composed of MDA-MB-231 and CAFs at a ratio of 1:2 in a collagen-based matrix were generated. The culture medium of both cell lines was mixed (DMEM:RPMI 1640 (1:1) + 12.5% FCS + 1% PS) and supplemented with 0.05 mg/mL collagen type I (Thermo Fisher Scientific; #A1048301). On day 1, 3000 cells were seeded into a low-attachment 96 well plate (Greiner; #650970). Spheroids were grown for 72 h before proceeding with compound treatment on day 4, and analysis on day 7 according to the “Spheroid immunostaining”, “3D cell viability”, or “3D growth” studies presented in the results section.
Co-culture spheroids were generated for 72 h before they were exposed to either DMSO (Roth; #A994.1) alone at maximal 0.1%, 100 nM paclitaxel (Santa Cruz Biotechnology; #sc-201439), or 100 nM of compound (1) for another 72 h. At least three spheroids per treatment group were analyzed. For that purpose, brightfield images of the spheroids were acquired at 100× g magnification using the microscope Axio Vert.A1 (Zeiss). The spheroid surface area was quantified in brightfield images using Fiji (open-source software; version 1.52i) and was further defined as spheroid size. In each individual experiment spheroid size was normalized to the smallest (which was set to 0%) and to the largest spheroids (which was set to 100%).

CAFs = experiment: 2D cell viability in CAFs; assay type: cell-based, murine; conditions: Mus musculus, 24 h, read-out: Reduction of Cell Viability 24 h IC50 in CAFs
Experimental: Table S1 IC50-values for reduction of cell viability determined in CAFs.
Compound Cell Viability 1
1 Cell viability of CAFs was determined 24 h post-treatment with the 2D cell viability assay. CAFs were seeded at a cell density of 2.5 × 10^3 cells per well. Compound concentration was applied in triplicates in a four-fold serial dilution starting at 1000 nM. 2 Duration of treatment. 3 Mean ± SD […]
50 µM. 4 Mean ± SD (n = 3). 5 Mean ± SD (n = 2).

MDA-MB-468-UnaG = experiment: 2D cell viability in MDA-MB-468-UnaG under normoxia or CoCl2-simulated hypoxia
IκBα = experiment: Western blot of IκBα after TNFα stimulation; assay type: cell-based; conditions: MDA-MB-468-UnaG
Experimental: We investigated NFκB-blocking by determining the protein expression of its cytoplasmic inhibitor IκBα in MDA-MB-468-UnaG cells. On day 1, the cells were seeded into a 6 well plate (Greiner; #657160). On day 2, the cells were either left untreated (normoxia) or exposed to 100 µM CoCl2 (hypoxia) (Sigma-Aldrich; #C8661). On day 3, the medium was replaced, and cells were either exposed to DMSO (Roth; #A994.1) alone at maximal 0.1% or to compound (1s) at the concentrations 2 nM, 5 nM, 10 nM, 20 nM, or 50 nM for 1 h. An amount of 10 ng/mL TNFα was applied as a positive control. […] An amount of 20 µg of the total protein was separated on a ready-to-use 12% SDS-gel (Bio-Rad, Düsseldorf, Germany; #456-1044). […] For protein detection via chemiluminescence, the membrane was incubated in HRP-substrate (Thermo Fisher Scientific; #34577) for 5 min and the signal was recorded using the Fusion Pulse TS microscope (VILBER, Eberhardzell; Germany). Signal quantification was performed using the software EvolutionCapt (VILBER). […]
Figure 8 Compound (1s) stabilizes IκBα under normoxic and under hypoxic conditions. […] Statistical difference vs. TNFα was calculated with two-way ANOVA (* p < 0.05, ** p < 0.01, *** p < 0.001). […]

Row | SMILES | reduction of spheroid growth compared to untreated spheroids [1] | IC50 (CAFs) | IC50 (MDA-MB-468-UnaG; 24 h, read-out: cell viability IC50, hypoxia) | decrease of cytotoxic effects by hypoxia (factor) (MDA-MB-468-UnaG; hypoxia vs normoxia, MDA-MB-468-UnaG) | IC50 (MDA-MB-468-UnaG; read-out: cell viability IC50, normoxia) | TNFα-mediated IκBα degradation (IκBα; CoCl2-simulated hypoxia, 20 nM) | IκBα protein level after TNFα (IκBα; normoxia, 20 nM pre-incubation 1 h, TNFα 10 ng/mL 30 min)
1 | COc1ccc2c3c(c4cc(OC)c(OC)cc4c2c1)CN1CCCC1C3O (stereo not shown) [Compound (1), O-methyltylophorinidine] | 40% | 2.7 ± 0.9 nM | – | – | – | – | –
2 | COc1ccc2c3c(c4cc(OC)c(OC)cc4c2c1)CN1CCCC1C3O (stereo not shown) [Compound (1s), O-methyltylophorinidine] | – | – | 6.5 nM | barely affected | 6.7 nM | suppressed | stabilized IκBα
